Source: patent publication US8992982B2, “Formulation of indomethacin” (Iceutica Pty Ltd., priority 2009, dated 2015)

Columns and labels:
[1] = system: pain after surgical removal of impacted third molars; test: Phase 2 dental pain study: use of rescue medication (proportion of subjects, time to first use); format: in vivo, human; settings: 400 mg
Protocol: (§1) Subjects assessed their baseline pain intensity (VAS) before receiving study drug (predose, Time 0) and their pain intensity (VAS) and pain relief (5-point categorical scale) at 15, 30, and 45 minutes and 1, 1.5, 2, 3, 4, 5, 6, 7, and 8 hours after Time 0 and immediately before the first dose of rescue medication. The 2-stopwatch method was used to record the time to perceptible and time to meaningful pain relief, respectively. Acetaminophen (1000 mg) was permitted as the initial rescue medication. Subjects were encouraged to wait at least 60 minutes after receiving study drug before taking rescue medication. […] Other restrictions included the following: no alcohol use from 24 hours before surgery until discharge on Day 1; nothing by mouth (NPO) from midnight before surgery until 1 hour after surgery; clear liquids only from 1 hour after surgery until 1 hour after dosing; and advancement of diet 1 hour after dosing according to standard practice.
(§2) The secondary efficacy endpoints were as follows: • TOTPAR over 0 to 4 hours (TOTPAR-4) after Time 0 • Visual Analogue Scale (VAS) pain intensity difference (VASPID) at each scheduled time point after Time 0 • Time to onset of analgesia (measured as time to perceptible pain relief confirmed by meaningful pain relief) • VAS pain intensity score at each scheduled time point • VAS summed pain intensity difference (VASSPID) over 0 to 4 hours (VASSPID-4) and over 0 to 8 hours (VASSPID-8) after Time 0 • Pain relief score at each scheduled time point after Time 0 • Peak pain relief • Time to peak pain relief • Time to first perceptible pain relief • Time to meaningful pain relief • Proportion of subjects using rescue medication • Time to first use of rescue medication (duration of analgesia) • Patient's global evaluation of study drug Safety:
For each time-to-event endpoint, the Kaplan-Meier method was used to evaluate the treatment effect. Time to onset of analgesia (measured as time to perceptible pain relief confirmed by meaningful pain relief) was based on data collected using the 2-stopwatch method. […] A summary table provided the number of subjects analyzed, the number of subjects censored, estimates for the quartiles, and 95% confidence intervals (CIs) for the estimated median. P values from log-rank tests were also used to examine treatment effect. Cox proportional hazard models were used to explore potential covariates such as sex, baseline pain intensity, and surgical trauma rating, if appropriate.
For the proportion of subjects using rescue medication, a logistic regression model that adjusted for baseline pain intensity was used to evaluate the treatment effect. Subgroup analysis by sex was performed if sex was confirmed to be a statistically significant covariate for TOTPAR-8. Baseline values were defined as the last measurements taken before dosing with a study drug.

[2] = system: pain after surgical removal of impacted third molars; test: Phase 2 dental pain study: VAS pain intensity (VAS score, VASPID, VASSPID); format: in vivo, human; parameters: VASPID, Median / VASPID, Mean / VAS pain intensity score, Median / VASSPID-8, Median: scale not given here
Protocol: On Day 1, eligible subjects underwent extraction of 2 or more third molars, at least 1 of which had to be a fully or partially bone-impacted mandibular molar. If only 2 molars were removed, then they had to be ipsilateral.
as §1, §2
For continuous secondary endpoints such as pain intensity score, VASPID at each scheduled time point, peak pain intensity, TOTPAR-4, VASSPID-4, and VASSPID-8, descriptive statistics (e.g., mean, standard error, median, minimum, and maximum) were provided for each treatment regimen. Nominal P values from 2-sample tests comparing the placebo group with other treatment groups were provided, but no formal statistical inferences were drawn on the basis of these tests.
For pain intensity, missing observations were imputed using a baseline-observation-carried-forward (BOCF) approach for subjects who withdrew from the study due to lack of efficacy or an AE/intolerance to study drug. The BOCF imputation was applied in place of all scheduled assessments after the time of early termination due to lack of efficacy or an AE/intolerance to study drug using the baseline observation taken before Time 0.
For subjects who withdrew from the study for reasons other than lack of efficacy or an AE/intolerance to study drug, missing observations for pain intensity and pain relief were imputed using a last-observation-carried-forward (LOCF) approach. The LOCF imputation was applied in place of all scheduled assessments after the time of early termination for reasons other than lack of efficacy or an AE/intolerance to study drug.
For subjects who took any dose of rescue medication, subsequent measures after the first dose of rescue mediation were disregarded. Instead, all scheduled assessments after the first dose of rescue medication were imputed using BOCF and the baseline observation taken before Time 0. (Baseline value for pain relief was 0.)

[3] = 15 minutes after Time 0, ITT, 100-mm VAS

Q: How did the “Hazard ratio vs placebo, Cox proportional hazards model (time to first use of rescue medication)” value [1] turn out when `Cc1ccc(-c2cc(C(F)(F)F)nn2-c2ccc(S(N)(=O)=O)cc2)cc1` [Celecoxib] was run?
A: 0.2

Q: And the “Time to first use of rescue medication: subjects analyzed, %” value [1]?
A: (41.2) %

Q: What about the “Time to first use of rescue medication: subjects censored, %” value [1] of the same compound?
A: (58.8) %

Q: And the “Time to first use of rescue medication, Mean” value ([1]; Kaplan-Meier estimate)?
A: 4.7 h

Q: What about the “Time to first use of rescue medication, Q25” value ([1]; Kaplan-Meier estimate) of the same compound?
A: 3.30 h

Q: And the “VASSPID-4, Mean (SD)” value ([2]; 0 to 4 hours after Time 0, ITT)?
A: 127.971 (99.1934)

Q: And the “VASSPID-4, Median” value ([2]; 0 to 4 hours after Time 0, ITT)?
A: 140.250

Q: What about the “VASSPID-8, Mean (SD)” value ([2]; 0 to 8 hours after Time 0, ITT) of the same compound?
A: 284.265 (229.4447)

Q: What about the “VASSPID-8, Median” value ([2]; 0 to 8 hours after Time 0, ITT) of the same compound?
A: 346.500

Q: And the “VAS pain intensity score, Median” value ([2]; 15 minutes after Time 0, ITT)?
A: 71.00

Q: What about the “VASPID, Median” value ([2]; 15 minutes after Time 0, ITT) of the same compound?
A: 1.00

Q: And the “VAS pain intensity score, Mean” value [2, 3]?
A: 70.55

Q: And the “VASPID, Mean” value [2, 3]?
A: 3.35

Q: What about the “VAS pain intensity score, Mean” value ([2]; 30 minutes after Time 0, ITT) of the same compound?
A: 67.25

Q: And the “VAS pain intensity score, Median” value ([2]; 30 minutes after Time 0, ITT)?
A: 66.00

Q: What about the “VASPID, Mean” value ([2]; 30 minutes after Time 0, ITT) of the same compound?
A: 6.65

Q: What about the “VASPID, Median” value ([2]; 30 minutes after Time 0, ITT) of the same compound?
A: 3.00

Q: And the “VAS pain intensity score, Mean” value ([2]; 45 minutes after Time 0, ITT)?
A: 57.47

Q: What about the “VAS pain intensity score, Median” value ([2]; 45 minutes after Time 0, ITT) of the same compound?
A: 61.00

Q: What about the “VASPID, Mean” value ([2]; 45 minutes after Time 0, ITT) of the same compound?
A: 16.43

Q: What about the “VASPID, Median” value ([2]; 45 minutes after Time 0, ITT) of the same compound?
A: 10.00

Q: What about the “VAS pain intensity score, Mean” value ([2]; 1 hour after Time 0, ITT) of the same compound?
A: 49.08

Q: And the “VAS pain intensity score, Median” value ([2]; 1 hour after Time 0, ITT)?
A: 50.00

Q: What about the “VASPID, Mean” value ([2]; 1 hour after Time 0, ITT) of the same compound?
A: 24.82

Q: And the “VASPID, Median” value ([2]; 1 hour after Time 0, ITT)?
A: 17.00

Q: What about the “VAS pain intensity score, Mean” value ([2]; 2 hours after Time 0, ITT) of the same compound?
A: 36.65

Q: And the “VAS pain intensity score, Median” value ([2]; 2 hours after Time 0, ITT)?
A: 36.00

Q: And the “VASPID, Mean” value ([2]; 2 hours after Time 0, ITT)?
A: 37.25

Q: And the “VASPID, Median” value ([2]; 2 hours after Time 0, ITT)?
A: 32.00

Q: What about the “VAS pain intensity score, Mean” value ([2]; 3 hours after Time 0, ITT) of the same compound?
A: 32.29

Q: And the “VAS pain intensity score, Median” value ([2]; 3 hours after Time 0, ITT)?
A: 28.00

Q: What about the “VASPID, Mean” value ([2]; 3 hours after Time 0, ITT) of the same compound?
A: 41.61

Q: And the “VASPID, Median” value ([2]; 3 hours after Time 0, ITT)?
A: 50.00

Q: And the “VAS pain intensity score, Mean” value ([2]; 4 hours after Time 0, ITT)?
A: 33.94

Q: And the “VAS pain intensity score, Median” value ([2]; 4 hours after Time 0, ITT)?
A: 25.00

Q: And the “VASPID, Mean” value ([2]; 4 hours after Time 0, ITT)?
A: 39.96

Q: And the “VASPID, Median” value ([2]; 4 hours after Time 0, ITT)?
A: 46.00

Q: And the “VAS pain intensity score, Mean” value ([2]; 5 hours after Time 0, ITT)?
A: 33.69

Q: And the “VAS pain intensity score, Median” value ([2]; 5 hours after Time 0, ITT)?
A: 22.00

Q: What about the “VASPID, Mean” value ([2]; 5 hours after Time 0, ITT) of the same compound?
A: 40.22

Q: What about the “VASPID, Median” value ([2]; 5 hours after Time 0, ITT) of the same compound?
A: 50.00

Q: What about the “VAS pain intensity score, Mean” value ([2]; 6 hours after Time 0, ITT) of the same compound?
A: 35.06

Q: What about the “VAS pain intensity score, Median” value ([2]; 6 hours after Time 0, ITT) of the same compound?
A: 20.00

Q: What about the “VASPID, Mean” value ([2]; 6 hours after Time 0, ITT) of the same compound?
A: 38.84

Q: And the “VASPID, Median” value ([2]; 6 hours after Time 0, ITT)?
A: 50.00

Q: And the “VAS pain intensity score, Mean” value ([2]; 7 hours after Time 0, ITT)?
A: 35.55

Q: And the “VAS pain intensity score, Median” value ([2]; 7 hours after Time 0, ITT)?
A: 21.00

Q: What about the “VASPID, Mean” value ([2]; 7 hours after Time 0, ITT) of the same compound?
A: 38.35

Q: And the “VASPID, Median” value ([2]; 7 hours after Time 0, ITT)?
A: 44.00

Q: What about the “VAS pain intensity score, Mean” value ([2]; 8 hours after Time 0, ITT) of the same compound?
A: 35.02

Q: What about the “VAS pain intensity score, Median” value ([2]; 8 hours after Time 0, ITT) of the same compound?
A: 22.0

Q: And the “VASPID, Mean” value ([2]; 8 hours after Time 0, ITT)?
A: 38.88

Q: And the “VASPID, Median” value ([2]; 8 hours after Time 0, ITT)?
A: 49.00

Q: What about the “VAS pain intensity score, Mean” value ([2]; […] after Time 0, ITT) of the same compound?
A: 43.98

Q: And the “VAS pain intensity score, Median” value ([2]; […] after Time 0, ITT)?
A: 48.00

Q: What about the “VASPID, Mean” value ([2]; […] after Time 0, ITT) of the same compound?
A: 29.92

Q: What about the “VASPID, Median” value ([2]; […] after Time 0, ITT) of the same compound?
A: 26.00

Q: What about the “Time point from which mean VASPID was statistically significantly greater and mean VAS pain intensity less than placebo” value ([2]; onward after Time 0) of the same compound?
A: ≥ 30 min
